Test results reported in patent US20080281105A1, “Novel Quinolinium Salts and Derivatives” (IMMUSOL INCORPORATED, priority 2005, published 2008).

Assays:
A549 = experiment: Cell growth in soft agar culture (alamarBlue); conditions: Homo sapiens, A549, 168 h, read-out: IC50 (uM) Soft agar
T47D [1] = experiment: Cell growth in liquid culture (alamarBlue); conditions: Homo sapiens, 72 h, read-out: IC50 (uM) Liquid culture
SKBR3 [2] = experiment: Cell growth in soft agar culture (alamarBlue); conditions: Homo sapiens, SK-BR-3, 168 h, read-out: IC50 (uM) Soft agar
[3] = system: HCT116 colon cancer cells; conditions: HCT116 xenograft, I.p.
Source text: Female athymic nude (nu/nu) mice were inoculated with HCT116 colon cancer cells, and the tumors were allowed to grow to a volume of about 150 mm^3.

A2780 [4] = experiment: Cell growth in soft agar culture (alamarBlue); conditions: Homo sapiens, A2780, 168 h, read-out: IC50 (uM) Soft agar
SK-OV-3 [5] = experiment: Cell growth in liquid culture (alamarBlue); conditions: Homo sapiens, SK-OV-3, 72 h, read-out: IC50 (uM) Liquid culture
UACC257 [6] = experiment: Cell growth in soft agar culture (alamarBlue); conditions: Homo sapiens, UACC-257, 168 h, read-out: IC50 (uM) Soft agar
HCT116-P53(−) = experiment: Cell growth in soft agar culture (alamarBlue); conditions: 168 h, read-out: IC50 (uM) Soft agar
Panc-1 = experiment: Cell growth in liquid culture (alamarBlue); conditions: Homo sapiens, PANC-1, 72 h, read-out: IC50 (uM) Liquid culture
SKBR3 [7] = experiment: Cell growth in liquid culture (alamarBlue); conditions: Homo sapiens, SK-BR-3, 72 h, read-out: IC50 (uM) Liquid culture
OVCAR-4 = experiment: Cell growth in liquid culture (alamarBlue); conditions: Homo sapiens, OVCAR-4, 72 h, read-out: IC50 (uM) Liquid culture
DU145 [8] = experiment: Cell growth in liquid culture (alamarBlue); conditions: Homo sapiens, DU-145, 72 h, read-out: IC50 (uM) Liquid culture
A2780 [9] = experiment: Cell growth in liquid culture (alamarBlue); conditions: Homo sapiens, A2780, 72 h, read-out: IC50 (uM) Liquid culture
HCT116 = experiment: Cell growth in liquid culture (alamarBlue); conditions: Homo sapiens, HCT-116, 72 h, read-out: IC50 (uM) Liquid culture
T47D [10] = experiment: Cell growth in soft agar culture (alamarBlue); conditions: Homo sapiens, 168 h, read-out: IC50 (uM) Soft agar
SK-OV-3 [11] = experiment: Cell growth in soft agar culture (alamarBlue); conditions: Homo sapiens, SK-OV-3, 168 h, read-out: IC50 (uM) Soft agar
HT29 [12] = experiment: Cell growth in soft agar culture (alamarBlue); conditions: Homo sapiens, HT-29, 168 h, read-out: IC50 (uM) Soft agar
DU145 [13] = experiment: Cell growth in soft agar culture (alamarBlue); conditions: Homo sapiens, DU-145, 168 h, read-out: IC50 (uM) Soft agar
UACC257 [14] = experiment: Cell growth in liquid culture (alamarBlue); conditions: Homo sapiens, UACC-257, 72 h, read-out: IC50 (uM) Liquid culture
DLD1 [15] = experiment: Cell growth in soft agar culture (alamarBlue); conditions: Homo sapiens, DLD-1, 168 h, read-out: IC50 (uM) Soft agar
UACC62 = experiment: Cell growth in soft agar culture (alamarBlue); conditions: Homo sapiens, UACC-62, 168 h, read-out: IC50 (uM) Soft agar
PC3 = experiment: Cell growth in soft agar culture (alamarBlue); conditions: Homo sapiens, PC-3, 168 h, read-out: IC50 (uM) Soft agar
DLD1 [16] = experiment: Cell growth in liquid culture (alamarBlue); conditions: Homo sapiens, DLD-1, 72 h, read-out: IC50 (uM) Liquid culture
IMR90 = experiment: Cell growth in liquid culture (alamarBlue); conditions: Homo sapiens, IMR-90, 72 h, read-out: IC50 (uM) Liquid culture
HUVEC = experiment: Cell growth in liquid culture (alamarBlue); conditions: Homo sapiens, 72 h, read-out: IC50 (uM) Liquid culture
Pc3M/N = experiment: Cell growth in liquid culture (alamarBlue); conditions: Homo sapiens, PC-3M, 72 h, read-out: IC50 (uM) Liquid culture
MCF7 = experiment: Cell growth in soft agar culture (alamarBlue); conditions: Homo sapiens, MCF7, 168 h, read-out: IC50 (uM) Soft agar
HT29 [17] = experiment: Cell growth in liquid culture (alamarBlue); conditions: Homo sapiens, HT-29, 72 h, read-out: IC50 (uM) Liquid culture

SMILES: Cc1cc(/C=C/c2ccc3cc(N(C)C)ccc3[n+]2C)c(C)n1-c1ccccc1 [Example 1, Pyrvinium Phosphate]
- IC50 (A549): 0.033 to 0.1 µM
- IC50 (T47D [1]): ~0.03 µM
- IC50 (SKBR3 [2]): ~1 µM
- Result: Tumor reduction [3]: Tumor reduction (25%)
- IC50 (A2780 [4]): 0.03 to 0.1 µM
- IC50 (SK-OV-3 [5]): 0.1 to 0.3 µM
- IC50 (UACC257 [6]): 0.1 to 0.3 µM
- IC50 (HCT116-P53(−)): 0.1 to 0.3 µM
- IC50 (Panc-1): 0.3 to 1 µM
- IC50 (SKBR3 [7]): ~1 µM
- IC50 (OVCAR-4): 0.1 to 0.3 µM
- IC50 (DU145 [8]): > 1 µM
- IC50 (A2780 [9]): 0.03 to 0.1 µM
- IC50 (HCT116): > 1 µM
- IC50 (T47D [10]): < 0.03 µM
- IC50 (SK-OV-3 [11]): 0.03 to 0.1 µM
- IC50 (HT29 [12]): 0.03 to 0.1 µM
- IC50 (DU145 [13]): 0.3 to 1 µM
- IC50 (UACC257 [14]): ~0.1 µM
- IC50 (DLD1 [15]): ~1 µM
- IC50 (UACC62): 0.03 to 0.1 µM
- IC50 (PC3): 0.1 to 0.3 µM
- IC50 (DLD1 [16]): 0.3 to 1 µM
- IC50 (IMR90): 0.1 to 0.3 µM
- IC50 (HUVEC): 0.03 to 0.1 µM
- IC50 (Pc3M/N): > 1 µM
- IC50 (MCF7): < 0.03 µM
- IC50 (HT29 [17]): > 1 µM
